Assay results from patent US12419852B2, “Method for treating lysosomal storage disease” (Exerkine Corporation, priority 2018, dated 2025).

Columns and labels:
GAA knockout mice [1] = assay: Forelimb grip strength in GAA knockout mice (Pompe disease model); assay type: in vivo; conditions: change over the 8 week period, FIG. 1A
Experimental: (§1) To determine if the ketogenic agent and enhanced ketogenic composition could improve autophagic activity, muscle function and mitochondrial capacity in mice having a lysosomal storage disease, mice lacking the acid alpha glucosidase (GAA) protein (an established mouse model of Pompe disease) were administered the ketogenic agent, the enhanced ketogenic composition or one of several control diets for a period of 8 weeks.
(§2) Breeding of GAA mice. Four GAA heterozygous breeding pairs (HET; GAA−/+; 6neo/6+) were obtained from Jackson Laboratories (Maine, USA) to generate homozygous GAA knock-outs (GAA; GAA−/−; 6neo/6neo). Mice were housed at McMaster University's Central Animal Facility in standard cages in 12-h light/dark cycles with ad libitum access to water and their respective diets. […]
(§3) Grip strength, motor coordination, and balance were evaluated prior to the introduction of the experimental diets. Motor coordination and balance were evaluated using a rotarod apparatus (Harvard Apparatus, MA), while forelimb grip strength was evaluated using a metal gripping bar attached to a DFIS-10 Chatillon digital force gage. Upon completion of the baseline testing, all groups were administered their respective experimental diets for a period of 8 weeks, when grip strength, motor coordination, and balance were re-evaluated as endpoint measures. […]

GAA knockout mice [2] = assay: Rotarod performance (motor coordination and balance) in GAA knockout mice; assay type: in vivo; conditions: change over 8 weeks, FIG. 1B
Experimental: as §1, §2, §3

[3] = system: autophagic buildup in skeletal muscle of GAA knockout mice; assay: Autophagic buildup scored on electron micrographs of skeletal muscle; assay type: in vivo; conditions: skeletal muscle electron micrographs after 8 weeks; 0=no buildup to 3=severe, 7 micrographs; FIG. 2A
Experimental: (§4) Experimental groups All mice were fed standard rodent chow (chow diet; Harlan Teklad 8640 22/5), as a base diet with the exception of the group receiving a conventional […] diet (% kcal of SRT diet being 93.2% fat, 6.4% protein and 0.4% carbohydrates; Envigo, TD.07797). […]
(§5) Grip strength, motor coordination, and balance were evaluated prior to the introduction of the experimental diets. Motor coordination and balance were evaluated using a rotarod apparatus (Harvard Apparatus, MA), while forelimb grip strength was evaluated using a metal gripping bar attached to a DFIS-10 Chatillon digital force gage. Upon completion of the baseline testing, all groups were administered their respective experimental diets for a period of 8 weeks, when grip strength, motor coordination, and balance were re-evaluated as endpoint measures. […] The proteins p62, ubiquitin and mitochondrial complexes 1-5 were evaluated in quadriceps muscle using the following antibodies in 5% milk: p62 (Cell Signalling, Cat. #51145), ubiquitin (Enzo Life Sciences, Cat. #UG95100100) and Total OXPHOS Rodent WB Antibody Cocktail (Abcam, Cat. #ab110413). Autophagic buildup was determined using electron micrographs generated by the McMaster Electron Microscopy Facility. […]

p62 protein = assay: Western blotting for p62 in quadriceps muscle; assay type: in vivo, mice; conditions: western blot, after 8 weeks, FIG. 2B
Experimental: as §4, §5

[4] = system: Complex IV enzyme activity; assay: Complex IV (COX IV) enzymatic activity in quadriceps muscle; assay type: in vivo, mice; conditions: skeletal muscle, after 8 weeks
Description: as §4
To measure COX IV enzymatic activity, quadriceps muscle was homogenized in Lysing Matrix D tubes (MP Biomedicals, Solon, OH, USA) using the FastPrep-24 Tissue and Cell Homogenizer (MP Biomedicals, Solon, OH, USA) for 5×5-second cycles at a speed of 4.0 m/s with samples placed on ice for 5 minutes between cycles. […] The rate of oxidation of reduced cytochrome c was measured at 550 nm for 3 min at 37° C.

[5] = system: mitochondrial complexes 1-5; assay: Western blotting for mitochondrial complexes 1-5 protein in quadriceps muscle; assay type: in vivo, mice; conditions: western blot, range over the five complexes, FIGS. 3B-F
Experimental: as §4, §5

[6] = Pompe disease, 2 weeks after the infusion; cited from earlier work

| Molecule | decline in forelimb grip strength (GAA knockout mice [1]) | improvement in duration of time able to balance on the rotarod apparatus (GAA knockout mice [2]) | autophagic buildup score (per mouse total score out of 21) [3] | p62 protein expression lower than GAA CON group (p62 protein) [%] | ratio of mean complex IV enzyme activity to mean complex IV protein content, lower compared to WT CON [4] [%] | protein levels of mitochondrial complexes 1-5 higher compared to WT CON [5] | fraction of infused protein retained within skeletal muscle [6] |
| --- | --- | --- | --- | --- | --- | --- | --- |
| CC(O)CCO (stereo not shown) [ERT+1,3 BD, 1,3 butanediol] | relatively unchanged | 46% | 12/21 | 59 | 41 | 219-647% |  |
| ERT: Enzyme replacement therapy: bi-weekly intravenous injections of 40 mg/kg recombinant GAA enzyme (Myozyme; Genzyme) | 20% | little or no change | 15/21 | 23 | 43 | 103-250% |  |
| recombinant GAA protein: Infused recombinant acid alpha-glucosidase (GAA) protein used as enzyme replacement therapy in Pompe disease |  |  |  |  |  |  | 1-3% |
